# Results published in the supplement of paper PMC10307832.
# Tests used:
# Assay in all cases: relative viability (nuclei count vs DMSO), 5 days (fraction); higher = more cells survive
# Ponatinib + Palbociclib = compound: Cc1ccc(C(=O)Nc2ccc(CN3CCN(C)CC3)c(C(F)(F)F)c2)cc1C#Cc1cnc2cccnn12 [Ponatinib] + CC(=O)c1c(C)c2cnc(Nc3ccc(N4CCNCC4)cn3)nc2n(C2CCCC2)c1=O [Palbociclib] (partner 0.5 µM)
# Outline: (§1)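 Lung cancer cell lines were pin-tool dosed in 1536-well plates on the day after seeding, with either a lone drug or a fixed anchor-drug dose plus five library-drug doses (not always all listed) in √10 steps. Nuclei were counted on 4× images after 5 days. Relative viability is the ratio of treated-well to vehicle-well nuclei counts, with each value a median of duplicate plates.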
# Pazopanib + Palbociclib = compound: Cc1ccc(Nc2nccc(N(C)c3ccc4c(C)n(C)nc4c3)n2)cc1S(N)(=O)=O [Pazopanib] + CC(=O)c1c(C)c2cnc(Nc3ccc(N4CCNCC4)cn3)nc2n(C2CCCC2)c1=O [Palbociclib] (partner 0.5 µM)
# Outline: as §1
# Pazopanib + Trametinib = compound: Cc1ccc(Nc2nccc(N(C)c3ccc4c(C)n(C)nc4c3)n2)cc1S(N)(=O)=O [Pazopanib] + CC(=O)Nc1cccc(-n2c(=O)n(C3CC3)c(=O)c3c(Nc4ccc(I)cc4F)n(C)c(=O)c(C)c32)c1 [Trametinib] (partner 0.02 µM)
# Outline: as §1
# Pazopanib + Pictilisib = compound: Cc1ccc(Nc2nccc(N(C)c3ccc4c(C)n(C)nc4c3)n2)cc1S(N)(=O)=O [Pazopanib] + CS(=O)(=O)N1CCN(Cc2cc3nc(-c4cccc5[nH]ncc45)nc(N4CCOCC4)c3s2)CC1 [Pictilisib] (partner 1 µM)
# Outline: as §1
Cell Line,relative viability (Ponatinib + Palbociclib; first compound 0.002 µM),relative viability (Ponatinib + Palbociclib; first compound 0.006325 µM),relative viability (Ponatinib + Palbociclib; first compound 0.06325 µM),relative viability (Ponatinib + Palbociclib; first compound 0.2 µM),relative viability (Pazopanib + Palbociclib; first compound 0.01 µM),relative viability (Pazopanib + Palbociclib; first compound 0.03162 µM),relative viability (Pazopanib + Palbociclib; first compound 0.1 µM),relative viability (Pazopanib + Palbociclib; first compound 0.3162 µM),relative viability (Pazopanib + Palbociclib; first compound 1 µM),relative viability (Pazopanib + Trametinib; first compound 0.01 µM),relative viability (Pazopanib + Trametinib; first compound 0.03162 µM),relative viability (Pazopanib + Trametinib; first compound 0.1 µM),relative viability (Pazopanib + Trametinib; first compound 0.3162 µM),relative viability (Pazopanib + Trametinib; first compound 1 µM),relative viability (Pazopanib + Pictilisib; first compound 0.01 µM),relative viability (Pazopanib + Pictilisib; first compound 0.03162 µM),relative viability (Pazopanib + Pictilisib; first compound 0.1 µM),relative viability (Pazopanib + Pictilisib; first compound 0.3162 µM),relative viability (Pazopanib + Pictilisib; first compound 1 µM)
201T,0.367,0.359,0.351,0.328,0.332,0.356,0.343,0.37,0.412,0.719,0.729,0.737,0.783,0.705,0.602,0.603,0.709,0.742,0.695
A549,,,,,,,,,,,,,,,0.494,0.477,0.63,0.589,0.423
A-427,0.511,0.535,0.528,0.438,0.536,0.565,0.476,0.554,0.526,0.7,0.882,0.679,0.71,0.753,0.612,0.705,0.692,0.746,0.782
ABC-1,0.571,0.693,0.877,0.646,0.407,0.799,0.788,1.13,0.784,,,,,,0.635,0.839,0.82,0.799,0.86
BEN,0.453,0.528,0.469,0.47,0.447,0.467,0.498,0.506,0.482,1.05,1.04,0.916,1.08,0.925,0.514,0.621,0.515,0.567,0.488
CAL-12T,0.295,0.524,0.622,0.535,0.487,0.687,0.348,0.486,0.577,0.32,0.437,0.331,0.437,0.446,0.335,0.461,0.527,0.401,0.423
COR-L23,0.271,0.287,0.272,0.229,0.297,0.323,0.353,0.316,0.317,0.511,0.649,0.698,0.625,0.773,0.649,0.771,0.805,0.962,0.881
COR-L 105,0.351,0.4,0.404,0.447,0.364,0.363,0.413,0.437,0.438,0.468,0.406,0.438,0.427,0.58,0.4,0.473,0.411,0.443,0.417
Calu-6,,,,,,,,,,,,,,,0.874,1.01,0.993,0.849,0.877
ChaGo-K-1,0.887,0.964,0.936,0.856,0.949,0.927,0.973,0.927,0.873,0.908,0.75,0.904,0.905,0.901,0.543,0.876,0.632,0.613,0.759
EBC-1,,,,,,,,,,,,,,,0.402,0.508,0.376,0.412,0.394
EKVX,0.382,0.419,0.458,0.438,0.378,0.461,0.395,0.368,0.423,0.337,0.349,0.267,0.318,0.449,0.411,0.402,0.415,0.507,0.517
EMC-BAC-2,0.469,0.486,0.476,0.42,,0.522,0.488,0.511,0.492,,0.965,0.897,0.931,1.1,0.457,0.576,0.623,0.579,0.604
EPLC-272H,0.292,0.34,0.376,0.332,,0.366,0.304,0.334,0.409,,0.278,0.281,0.251,0.285,0.264,0.335,0.27,0.35,0.274
H3255,0.325,0.312,0.297,0.297,0.314,0.315,0.349,0.328,0.361,0.512,0.564,0.617,0.739,0.731,0.452,0.454,0.427,0.417,0.582
HARA,0.246,0.332,0.228,0.246,0.238,0.255,0.295,0.254,0.295,0.829,0.94,0.604,0.755,0.725,0.26,0.332,0.493,0.479,0.343
HCC-15,0.675,0.752,0.798,0.672,0.7,0.708,0.729,0.752,0.788,0.326,0.338,0.382,0.417,0.406,0.703,0.773,0.718,0.857,1.06
HCC-44,0.891,0.981,0.932,0.852,0.921,0.932,0.943,0.982,0.948,1.03,1,1.03,1,1.09,0.421,0.599,0.659,0.521,0.673
HCC-78,0.422,0.528,0.418,0.471,0.465,0.511,0.4,0.462,0.432,,0.864,0.721,0.804,1.06,0.2,0.216,0.194,0.214,0.202
HCC-366,0.339,0.361,0.423,0.361,0.36,0.422,0.449,0.386,0.353,0.319,0.328,0.346,0.365,0.413,0.0942,0.155,0.116,0.164,0.159
HCC-827,0.537,0.483,0.533,0.497,0.558,0.456,0.516,0.444,0.471,0.558,0.551,0.546,0.547,0.559,0.894,1.17,1.03,0.946,1.12

Cell Line,relative viability (Ponatinib + Palbociclib; first compound 0.002 µM),relative viability (Ponatinib + Palbociclib; first compound 0.006325 µM),relative viability (Ponatinib + Palbociclib; first compound 0.06325 µM),relative viability (Ponatinib + Palbociclib; first compound 0.2 µM),relative viability (Pazopanib + Palbociclib; first compound 0.01 µM),relative viability (Pazopanib + Palbociclib; first compound 0.03162 µM),relative viability (Pazopanib + Palbociclib; first compound 0.1 µM),relative viability (Pazopanib + Palbociclib; first compound 0.3162 µM),relative viability (Pazopanib + Palbociclib; first compound 1 µM),relative viability (Pazopanib + Trametinib; first compound 0.01 µM),relative viability (Pazopanib + Trametinib; first compound 0.03162 µM),relative viability (Pazopanib + Trametinib; first compound 0.1 µM),relative viability (Pazopanib + Trametinib; first compound 0.3162 µM),relative viability (Pazopanib + Trametinib; first compound 1 µM),relative viability (Pazopanib + Pictilisib; first compound 0.01 µM),relative viability (Pazopanib + Pictilisib; first compound 0.03162 µM),relative viability (Pazopanib + Pictilisib; first compound 0.1 µM),relative viability (Pazopanib + Pictilisib; first compound 0.3162 µM),relative viability (Pazopanib + Pictilisib; first compound 1 µM)
HOP-62,0.378,0.374,0.334,0.376,0.436,0.472,0.424,0.493,0.46,0.378,0.371,0.421,0.427,0.5,0.479,0.768,,0.874,0.874
IA-LM,,,,,,,,,,,,,,,0.368,0.439,0.4,0.568,0.524
LC-2-ad,0.474,0.448,0.359,0.347,0.552,0.459,0.56,0.45,0.487,0.905,0.934,0.89,0.915,0.858,0.412,0.436,0.515,0.196,0.527
LCLC-97TM1,0.233,0.239,0.252,0.221,,0.202,0.212,0.205,0.264,,0.218,0.203,0.209,0.279,,0.196,0.195,0.201,0.179
LCLC-103H,0.464,0.517,0.491,0.431,0.409,0.517,0.495,0.439,0.5,0.589,0.725,0.68,0.646,0.723,0.531,0.575,0.635,0.764,0.588
LK-2,0.643,0.744,0.768,0.757,0.615,0.803,0.69,0.709,0.729,0.643,0.788,0.562,0.565,0.755,0.508,0.724,0.729,0.558,0.496
LOU-NH91,0.587,0.531,0.528,0.549,0.511,0.502,0.564,0.538,0.547,0.721,0.769,0.848,0.795,0.822,0.501,0.534,0.502,0.568,0.543
LU99A,0.37,0.433,0.407,0.363,,0.39,0.447,0.444,0.416,,0.622,0.632,0.597,0.595,0.241,0.374,0.356,0.35,0.35
LXF-289,0.606,0.613,0.6,0.611,0.591,0.581,0.629,0.571,0.598,0.691,0.675,0.717,0.71,0.706,0.701,0.784,0.778,0.735,0.822
NCI-H23,0.521,0.495,0.683,0.509,0.42,0.531,0.614,0.594,0.586,0.342,0.438,0.364,0.515,0.55,0.415,0.534,0.483,0.498,0.711
NCI-H322M,0.524,0.501,0.501,0.471,0.495,0.522,0.478,0.482,0.55,0.513,0.471,0.482,0.452,0.489,0.498,0.564,0.582,0.571,0.54
NCI-H358,0.137,0.129,0.148,0.136,0.134,0.141,0.121,0.112,0.122,0.145,0.134,0.124,0.167,0.141,0.337,0.333,0.297,0.415,0.395
NCI-H522,1.05,0.982,1.18,0.814,0.973,0.97,1.05,0.887,0.883,0.727,0.771,0.735,0.786,0.811,,,,,
NCI-H596,,,,,,,,,,0.798,1.02,0.808,0.814,0.915,0.383,0.379,0.417,0.381,0.39
NCI-H1299,,,,,,,,,,,,,,,0.791,0.79,0.82,0.952,0.693
NCI-H1563,,,,,,,,,,,,,,,0.664,0.637,0.697,0.667,0.627
NCI-H1648,0.266,0.245,0.246,0.252,,,0.229,0.281,0.279,,,0.452,0.454,0.427,,,,,
NCI-H1703,,,,,,,,,,,,,,,0.246,0.24,0.207,0.198,0.173
NCI-H2342,0.548,0.522,0.461,0.498,0.538,0.501,0.496,0.489,0.515,0.778,0.918,0.821,0.754,0.674,,,,,
SW 900,0.484,0.485,0.569,0.516,0.463,0.636,,0.65,0.595,1.03,0.837,,0.974,1.03,,,,,
